Data reported in PMC9760738, “Pharmacokinetics, absorption, distribution, metabolism and excretion of the MEK inhibitor zapnometinib in rats” (Frontiers in Pharmacology, 2022).
Like-named read-outs stand apart in the source and are kept apart here.

Assays:
MEK = system: MEK; design: method as in Lorusso et al., 2005; settings: ref Lorusso et al., 2005; read-out: 50% inhibitory concentration (IC50); cited from earlier work
[1] = design: method as in Wabnitz et al., 2004; settings: rat; ref Wabnitz et al., 2004; cited from earlier work
[2] = design: method as in Wabnitz et al., 2004; settings: monkey; ref Wabnitz et al., 2004; cited from earlier work
[3] = Metabolite profiling of pooled feces extracts by radio-HPLC (Group 2); assay type: in vivo, rat
Method: (§1) Metabolite profiling was performed by HPLC analysis according to the company’s SOP of plasma (Group 3), urine (Group 2) and feces (Group 2) samples. Briefly, for metabolite profiling and identification, radioactivity (cpm) was measured in HPLC eluent fractions that had previously been collected at 12 s intervals for the duration of the run (65 min) into 96-well Deep Well LumaPlates and dried in a centrifugal evaporator. A Microbeta2 scintillation counter was used to count each plate, with wells simultaneously counted for 2 min, after an initial 5 min delay. A subsample of plasma was analyzed (ca 2 ml) taken from individual animals to provide representative samples, for each sex, at 2, 8 and 168 h post dose (n = 6). Equal proportions of the total urine weight voided from Group 2 animals was pooled to provide representative samples for each sex at 0–6 h, 6–24 h and 24–48 h post dose (n = 6). Equal proportions of the total feces homogenate generated from the samples voided by the three rats (Group 2) were pooled to provide representative samples for each sex at 0–24 and 24–48 h post dose ([…]). Sample preparation was carried out due to the company’s SOPs (see Supplementary Methods). The extractability was ≥95.0% (95.0–100%) TRR (Total Radioactive Residue) for plasma and ≥88.3% (88.3%–91.3%) TRR for feces. As reference, a standard solution of zapnometinib (0.1 mg/ml in acetonitrile) was used. To assess HPLC method suitability, a column recovery was assessed on each representative sample (one per matrix). The recovery of radioactivity from the HPLC column was determined by collecting the column eluent, following an injection of a representative sample (one per matrix), and determining the radioactive content by submitting aliquots for LSC analysis. The results of these analyses were between 93.8%–105.1% column recoveries.
Next, radioactive metabolic components of zapnometinib in urine, plasma and feces extracts were isolated and profiled. The components were quantified by fraction collection/scintillation analysis, as appropriate to the radioactivity concentrations. Mass spectroscopy was used to propose identities of the major circulatory and excreted metabolites, and to correlate the metabolites detected in the different matrices. Components identified by LC-MS/MS were related to the quantified HPLC analysis by comparison of related radiochromatograms and comparison of elution order. Representative HPLC radiochromatograms of pooled feces extracts collected during 0–24 and 24–48 h post dose from male and female rats (which reveal the main metabolites) were qualitatively similar with some minor sex differences (Figure 3). […]
times with the following solvents following the same procedure: Extract 2 – Acetonitrile/methanol 4:1 (v/v); Extract 3 – Acetonitrile/Water 1:1 (v/v). Duplicate weighed aliquots of each supernatant (ca 0.1 mL) were mixed directly with Ultima Gold scintillation cocktail for measurement of radioactivity concentrations. The extracted residue was allowed to air dry and the total weight was recorded. Duplicate weighed portions (ca 0.05g) were taken for radioassay after oxidation. The extracts were combined and concentrated under a constant stream of nitrogen gas to near dryness and reconstituted in acetonitrile/0.1% aqueous formic acid, 1:1 (v/v) by vortex mixing, sonication and centrifugation at 10000 × g for 5 min at 4°C.
The concentrates were weighed, and duplicate weighed aliquots (0.025 – 0.05 mL) taken for measurement of radioactivity to calculate recovery following concentration. An aliquot of each concentrated extract was injected into the HPLC. […]
(100 mL) in purified water (600 mL) and methanol (300 mL). After measurement of total sample weight (as appropriate), replicate portions of diluted dose solutions (ca 0.1 mL), plasma (ca 0.05 – 0.25 mL), urine (ca 0.05 – 0.25 mL), expired air trap solution (ca 1 mL) and cage wash (ca 1 mL) were mixed directly with Ultima Gold scintillation cocktail (5 mL; 15 mL for […]

[4] = Metabolite profiling of plasma extracts by radio-HPLC (Group 3); assay type: in vivo, rat; settings: male plasma
Method: as §1
Next, radioactive metabolic components of zapnometinib in urine, plasma and feces extracts were isolated and profiled. The components were quantified by fraction collection/scintillation analysis, as appropriate to the radioactivity concentrations. Mass spectroscopy was used to propose identities of the major circulatory and excreted metabolites, and to correlate the metabolites detected in the different matrices. Components identified by LC-MS/MS were related to the quantified HPLC analysis by comparison of related radiochromatograms and comparison of elution order. Representative HPLC radiochromatograms of pooled feces extracts collected during 0–24 and 24–48 h post dose from male and female rats (which reveal the main metabolites) were qualitatively similar with some minor sex differences (Figure 3).

| Structure (SMILES) | IC50 (MEK) [nM] | Renal elimination [1] | Renal elimination [2] | Amount in pooled feces extracts ([3]; 0-24 hours, female rats) [% Dose] | Amount in pooled feces extracts ([3]; 0-24 hours, male rats) [% Dose] | Amount in pooled feces extracts ([3]; 24-48 hours, female rats) [% Dose] | Amount in pooled feces extracts ([3]; Total (0-48 hours), female rats) [% Dose] | Amount in pooled feces extracts ([3]; Total (0-48 hours), male rats) [% Dose] | Amount detected in plasma by mass spectrometry [4] |
| --- | --- | --- | --- | --- | --- | --- | --- | --- | --- |
| O=C(NOCC1CC1)c1ccc(F)c(F)c1Nc1ccc(I)cc1Cl [CI-1040, 2-(2-chloro-4-iodo-phenylamino)-Ncyclopropylmethoxy-3,4-difluoro-benzamide] | […] | < 5 % of dose | < 5 % of dose |  |  |  |  |  |  |
| CC(C)[C@H](NC(=O)c1ccc(F)c(F)c1Nc1ccc(I)cc1Cl)C(=O)O [M3] |  |  |  | 16.10 | 4.21 | 2.48 | 18.58 | 4.21 | trace amounts |
